# Reference: PMC7914897, “Cytotoxic Potential of a-Azepano- and 3-Amino-3,4-SeCo-Triterpenoids” (International Journal of Molecular Sciences, 2021)
# Tests used:
# [1] = test system: NIH 3T3 (non-malignant mouse fibroblasts); test: SRB cytotoxicity assay, 72 h; format: cell-based; conditions: Mus musculus, NIH3T3; NIH 3T3, 72 h, cut-off 30 µM; read-out: EC50
# Summary of the method: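 Absorbance at 570 nm of SRB-stained cells gives % survival vs untreated controls, from which EC50 is determined. Treatment: 0–30 µM serial dilutions, 72 h, beginning 24 h post-seeding; DMSO ≤0.5%. TCA (10%) fixation, acetic acid wash.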
# LOX IMVI (Melanoma) = test: NCI-60 screen (SRB, 48 h); format: cell-based; conditions: Homo sapiens; for activity at 10 µM: 1 dose 10 µM, read-out: Growth % of the Most Sensitive Cell Lines; for GI50: read-out: GI50
# Leukemia subpanel = test: cells; conditions: Homo sapiens; for IC (TGI): 48 h, read-out: TGI MG_MID; for GI50: read-out: GI50 MG_MID; for CC50: read-out: LC50 MG_MID
# Prostate cancer subpanel = test: NCI-60 screen, subpanel; conditions: Homo sapiens; for IC (TGI): 48 h, read-out: TGI MG_MID; for GI50: read-out: GI50 MG_MID
# K-562 (Leukemia) = test: NCI-60 screen (SRB, 48 h); conditions: Homo sapiens; for GI50: K562; for CC50: K562, read-out: LC50
# [2] = test system: A549/ATCC (NSC lung cancer); test: NCI-60 screen (SRB, 48 h); conditions: Homo sapiens; for GI50: A549; for IC (TGI): A549, 48 h, read-out: TGI
# HCT-116 (Colon cancer) = test: NCI-60 screen (SRB, 48 h); conditions: Homo sapiens; for GI50: HCT-116
# HCT-15 (Colon cancer) = test: NCI-60 screen (SRB, 48 h); conditions: Homo sapiens; for GI50: HCT-15
# KM12 (Colon cancer) = test: NCI-60 screen (SRB, 48 h); conditions: Homo sapiens; for GI50: KM12; for IC (TGI): KM12, 48 h, read-out: TGI
# SNB-19 (CNS cancer) = test: NCI-60 screen (SRB, 48 h); conditions: Homo sapiens; for GI50: SNB-19; for IC (TGI): SNB-19, 48 h, read-out: TGI
# U251 (CNS cancer) = test: NCI-60 screen (SRB, 48 h); conditions: Homo sapiens; for GI50: U-251
# MALME-3M (Melanoma) = test: NCI-60 screen (SRB, 48 h); conditions: Homo sapiens; for IC (TGI): 48 h, read-out: TGI
# SK-MEL-2 (Melanoma) = test: NCI-60 screen (SRB, 48 h); conditions: Homo sapiens; for GI50: SK-MEL-2; for IC (TGI): SK-MEL-2, 48 h, read-out: TGI
# UACC-62 (Melanoma) = test: NCI-60 screen (SRB, 48 h); conditions: Homo sapiens; for GI50: UACC-62; for IC (TGI): UACC-62, 48 h, read-out: TGI
# IGROV1 (Ovarian cancer) = test: NCI-60 screen (SRB, 48 h); conditions: for GI50: IGROV-1
# [3] = test system: NCI/ADR-RES (Ovarian cancer); test: NCI-60 screen (SRB, 48 h); conditions: Homo sapiens
# RXF 393 (Renal cancer) = test: NCI-60 screen (SRB, 48 h); conditions: Homo sapiens; for GI50: RXF 393; for IC (TGI): RXF 393, 48 h, read-out: TGI
# SN12C (Renal cancer) = test: NCI-60 screen (SRB, 48 h); conditions: for GI50 / IC (TGI): Homo sapiens; for IC (TGI): 48 h, read-out: TGI
# TK-10 (Renal cancer) = test: NCI-60 screen (SRB, 48 h); conditions: Homo sapiens; for GI50: TK-10; for IC (TGI): TK-10, 48 h, read-out: TGI
# PC-3 (Prostate cancer) = test: NCI-60 screen (SRB, 48 h); conditions: Homo sapiens; for GI50: PC-3; for IC (TGI): PC-3, 48 h, read-out: TGI
# MCF7 (Breast cancer) = test: NCI-60 screen (SRB, 48 h); conditions: Homo sapiens; for GI50: MCF7
# [4] = test system: MDA-MB-31/ATCC (Breast cancer); test: NCI-60 screen (SRB, 48 h); conditions: Homo sapiens
# HS 578T (Breast cancer) = test: NCI-60 screen (SRB, 48 h); conditions: Homo sapiens; for IC (TGI): 48 h, read-out: TGI
structure (smiles),measurement,setting,value
C=C(C)[C@@H]1CC[C@]2(COS(=O)(=O)c3ccc(C)cc3)CC[C@]3(C)[C@@H](CC[C@@H]4[C@@]5(C)CCCNC(C)(C)[C@@H]5CC[C@]43C)[C@@H]12 [Compound 12],EC50,[1],1940 ± 200 nM
same,activity at 10 µM,LOX IMVI (Melanoma); 48 h,-86.5%
same,GI50,LOX IMVI (Melanoma),1720 nM
same,IC (TGI),Leukemia subpanel,4060 nM
same,GI50,Leukemia subpanel,1830 nM
same,CC50,Leukemia subpanel,> 100000 nM
same,IC (TGI),Prostate cancer subpanel,3150 nM
same,GI50,Prostate cancer subpanel,1670 nM
same,GI50,K-562 (Leukemia),1570 nM
same,CC50,K-562 (Leukemia),> 100000 nM
same,GI50,[2],1870 nM
same,IC (TGI),[2],3500 nM
same,GI50,HCT-116 (Colon cancer),1790 nM
same,IC (TGI),"HCT-116 (Colon cancer); HCT-116, 48 h, read-out: TGI",3330 nM
same,GI50,HCT-15 (Colon cancer),1380 nM
same,GI50,KM12 (Colon cancer),1840 nM
same,IC (TGI),KM12 (Colon cancer),3410 nM
same,GI50,SNB-19 (CNS cancer),2040 nM
same,IC (TGI),SNB-19 (CNS cancer),3680 nM
same,GI50,U251 (CNS cancer),1750 nM
same,GI50,MALME-3M (Melanoma),1840 nM
same,IC (TGI),MALME-3M (Melanoma),3790 nM
same,GI50,SK-MEL-2 (Melanoma),1840 nM
same,IC (TGI),SK-MEL-2 (Melanoma),3320 nM
same,GI50,UACC-62 (Melanoma),2050 nM
same,IC (TGI),UACC-62 (Melanoma),3640 nM
same,GI50,IGROV1 (Ovarian cancer); Homo sapiens,1840 nM
same,Growth % of the Most Sensitive Cell Lines,"IGROV1 (Ovarian cancer); IGROV1, 1 dose 10 µM",−87.10%
same,GI50,[3],1740 nM
same,GI50,RXF 393 (Renal cancer),1620 nM
same,IC (TGI),RXF 393 (Renal cancer),3130 nM
same,Growth % of the Most Sensitive Cell Lines,SN12C (Renal cancer); 1 dose 10 µM,−94.44%
same,GI50,SN12C (Renal cancer),1880 nM
same,IC (TGI),SN12C (Renal cancer),3370 nM
same,GI50,TK-10 (Renal cancer),1660 nM
same,IC (TGI),TK-10 (Renal cancer),3230 nM
same,GI50,PC-3 (Prostate cancer),1580 nM
same,IC (TGI),PC-3 (Prostate cancer),3000 nM
same,GI50,MCF7 (Breast cancer),1450 nM
same,GI50,[4],1880 nM
same,GI50,HS 578T (Breast cancer),1790 nM
same,IC (TGI),HS 578T (Breast cancer),3940 nM
Cc1ccc(S(=O)(=O)OC[C@]23CCC(C)(C)C[C@H]2C2=CC[C@@H]4[C@@]5(C)CCCNC(C)(C)[C@@H]5CC[C@@]4(C)[C@]2(C)CC3)cc1 [Compound 15],EC50,[1],2760 ± 300 nM
same,IC (TGI),LOX IMVI (Melanoma); 48 h,3000 nM
same,activity at 10 µM,LOX IMVI (Melanoma); 48 h,-87.7%
same,GI50,LOX IMVI (Melanoma),1600 nM
same,IC (TGI),Leukemia subpanel,4240 nM
same,GI50,Leukemia subpanel,1570 nM
same,CC50,Leukemia subpanel,> 100000 nM
same,IC (TGI),Prostate cancer subpanel,3270 nM
same,GI50,Prostate cancer subpanel,1720 nM
same,CC50,Prostate cancer subpanel; read-out: LC50 MG_MID,6350 nM
same,GI50,K-562 (Leukemia),1750 nM
same,CC50,K-562 (Leukemia),> 100000 nM
same,GI50,[2],1830 nM
same,IC (TGI),[2],3660 nM
same,GI50,HCT-116 (Colon cancer),1800 nM
same,activity at 10 µM,"HCT-116 (Colon cancer); HCT-116, 48 h, read-out: Growth % of the Most Sensitive Cell Lines",-83%
same,GI50,HCT-15 (Colon cancer),1650 nM
same,IC (TGI),"HCT-15 (Colon cancer); HCT-15, 48 h, read-out: TGI",3200 nM
same,GI50,KM12 (Colon cancer),1820 nM
same,IC (TGI),KM12 (Colon cancer),3330 nM
same,GI50,SNB-19 (CNS cancer),1720 nM
same,IC (TGI),SNB-19 (CNS cancer),3540 nM
same,GI50,U251 (CNS cancer),1740 nM
same,IC (TGI),"U251 (CNS cancer); U-251, 48 h, read-out: TGI",3290 nM
same,GI50,MALME-3M (Melanoma),1770 nM
same,IC (TGI),MALME-3M (Melanoma),3560 nM
same,GI50,SK-MEL-2 (Melanoma),2190 nM
same,IC (TGI),SK-MEL-2 (Melanoma),4830 nM
same,CC50,"SK-MEL-2 (Melanoma); SK-MEL-2, read-out: LC50",16400 nM
same,GI50,UACC-62 (Melanoma),1680 nM
same,IC (TGI),UACC-62 (Melanoma),3200 nM
same,GI50,IGROV1 (Ovarian cancer); Homo sapiens,1410 nM
same,IC (TGI),"IGROV1 (Ovarian cancer); Homo sapiens, IGROV-1, 48 h, read-out: TGI",3080 nM
same,GI50,[3],1890 nM
same,IC (TGI),"[3]; 48 h, read-out: TGI",3930 nM
same,GI50,RXF 393 (Renal cancer),1380 nM
same,IC (TGI),RXF 393 (Renal cancer),2780 nM
same,CC50,"RXF 393 (Renal cancer); RXF 393, read-out: LC50",5590 nM
same,GI50,SN12C (Renal cancer),1670 nM
same,IC (TGI),SN12C (Renal cancer),3300 nM
same,GI50,TK-10 (Renal cancer),1770 nM
same,IC (TGI),TK-10 (Renal cancer),3330 nM
same,CC50,"TK-10 (Renal cancer); TK-10, read-out: LC50",6270 nM
same,GI50,PC-3 (Prostate cancer),1660 nM
same,IC (TGI),PC-3 (Prostate cancer),3160 nM
same,GI50,MCF7 (Breast cancer),1620 nM
same,IC (TGI),"MCF7 (Breast cancer); MCF7, 48 h, read-out: TGI",3380 nM
same,GI50,[4],1910 nM
same,IC (TGI),"[4]; 48 h, read-out: TGI",4120 nM
same,GI50,HS 578T (Breast cancer),1820 nM
same,IC (TGI),HS 578T (Breast cancer),4080 nM
same,CC50,HS 578T (Breast cancer); read-out: LC50,9140 nM
